According to patent publication US5278191A, “Diphenylmethylaminoacetamide derivatives as anti-convulsants” (G. D. Searle & Co., priority 1991, dated 1994):

What was measured:
[1] = test system: 3-mercaptopropionic acid (3-MPA)-induced convulsions; assay: 3-MPA-induced convulsions, protection of mice; assay type: in vivo, male Swiss albino mice; conditions: interval 30 min, 3-MPA 120 mg/kg s.c., total protected of two groups of 5 mice
Description: (§1) Treatment of a mammal afflicted by or susceptible to certain CNS disorders is accomplished by administration of a therapeutically-effective amount of a compound of Formula I. In particular, Compounds #1-19 of Tables I and II were evaluated by in vitro and in vivo animal model assays to determine the pharmacological properties of such compounds and their likely suitability for use as therapeutic drugs in humans. These biological assays, as described below, consisted of prevention of induced convulsions in mice, determination of acute toxicity in mice and animal behavior assays. Except as otherwise specified, the animals used in the in vivo tests were male Swiss albino mice weight 22 to 33 g [CD1, Charles River, France], housed in groups of 10 on a 12-hour dark-light cycle for at least one week before use and fasted overnight prior to testing.
Compounds of Formula I were evaluated as inhibitors of convulsions and death induced by different convulsant agents: 3-mercaptopropionic acid (3-MPA; 120 mg/kg subcutaneously), pentylenetetrazole (PTZ, 55 mg/kg intravenously) and supramaximal electroconvulsive shocks (ECS evoked by a current intensity of 48 mA, 50 Hz. 0.2 sec duration, 10 msec square pulse, corneal electrodes) [W. van Dorsser, D. Barris, A. Cordi and J. Roba, Arch. Int. Pharmacodyn., 266, 239-249 (1983)]. The compounds of the invention were administered orally at a dosage of either 100 mg/kg or 30 mg/kg in a volume of 10 ml/kg each to 5 mice at intervals of 30 minutes or 2 hours before convulsions were induced. The number of mice protected against tonic convulsions and the number of dead mice were noted. Results are given in Table III as a score which represents the total number of mice protected for two groups of 5 animals (3-MPA).
Based upon data generated from the previously-described anti-convulsant experiments, ED50 values were calculated at which Compound #18 inhibits convulsions induced by the convulsant agents listed in Table V.

[2] = Acute toxicity after oral administration; conditions: mouse, in vivo, mice, mortality over 15 days
Description: as §1
(§2) The acute toxicity of compounds of the invention was determined after oral administration of the test compound to mice. Compound to be tested was suspended in a 1% tragacanth gum mucilage, and was administered by means of an intragastric probe to a group of three male mice, which doses varied from 3,000 mg/kg down to about 3 mg/kg. Doses used in the test were determined by observing toxic effects on the mice. The mortality was recorded over a period of 15 days. The LD50 results reported in Table V were calculated according to published methods [Lichtfield and Wilcoxon, J. Pharmacol. Exp. Ther., 96, 99 (1949)] and expressed in mg or test compound per kilogram of mouse body weight.

mice = test system: mice; parameters: species or system male Swiss albino mice; conditions: mouse, in vivo, po
Description: as §1, §2
Behavioral effects of compounds of the invention on animals were determined by observations taken at 5 to 6 hours and at 24 hours after administration of compounds in the acute toxicity studies. Determinations were made based on a method derived from that of S. Irwin [See R. A. Turner, Screening Methods in Pharmacology, Chapter 3, pages 22-34, Academic Press, N.Y. (1965)]. If an anomaly were noted, the observation was extended and smaller doses were tested. Possible types of behavior to be observed are as follows: analgesia (AAG), convulsions (CON), depression (DEP), exophthalmia (EOP), excitation (EXC), hyperalgesia (HAG), hypothermia (ATH), hypotonia (ATN), piloerection (PIE), palpebral ptosis (PTO), reduction of the pinna reflex (RPI), reduction of the rearing reflex (RRE), reduction of the flexion reflex (RRF), sedation (SED), tremors (TRE), cyanosis (CYA), diarrhea (DIA), increase of the pinna reflex (HPI), increase of the flexion reflex (HRF), dyspnea (DYS). Behaviors observed are reported in Table IV by numbers which represent the dose at which the behavior is observed.

5HTP-induced head twitch = assay: 5HTP-induced head twitch; assay type: in vivo, mice; conditions: under similar test conditions
Description: as §1
Compound #18 was evaluated for inhibition of head twitches produced in mice by administration of L-5-hydroxytryptophan (5HTP, 10 mg/kg intraperitoneously) after nialamide treatment (50 mg/kg intraperitoneal, 22 hours before the test). The head twitches were counted for 45 min. starting 15 min. after 5HTP administration. [E. Friedmann & al.; Europ. J. Pharmocol., 89, 69-76 (1983)].

Row | Structure (SMILES) | Number of Mice Protected From 3-MPA-Induced Convulsions ([1]; oral 30 mpk) | LD50 at 360 h [2] | Behavior: dose at which sedation (SED) is observed (mice) | Number of Mice Protected From 3-MPA-Induced Convulsions ([1]; oral 100 mpk) | other results
1 | Cc1cccc(C(NCC(N)=O)c2ccccc2)c1 (centres unmarked) [Compound 5, 2-[(3-methylphenyl)phenyl]methylaminoacetamide] | 2 mice | 3500 mg/kg | 1000 mg/kg | – | –
2 | NC(=O)CNC(c1ccccc1)c1cccc(Cl)c1 (centres unmarked) [Compound 15, 2-[(3-chlorophenyl)phenyl]methylaminoacetamide] | – | – | – | 9 mice | –
3 | NC(=O)CNC(c1ccc(F)cc1)c1ccccc1Cl (centres unmarked) [Compound 17, 2-[(2-chlorophenyl)(4-fluoropheny)]methylaminoacetamide] | – | – | – | 10 mice | –
4 | Cc1ccc(C(NCC(N)=O)c2ccccc2)c(C)c1 (centres unmarked) [Compound 14, 2-[(2,4-dimethylphenyl)phenyl]methylaminoacetamide] | 3 mice | – | – | 6 mice | –
5 | NC(=O)CNC(c1ccccc1)c1ccc(Br)cc1 (centres unmarked) [Compound 10, 2-[(4-bromophenyl)phenyl]methylaminoacetamide] | 3 mice | > 1000 mg/kg | 1000 mg/kg | – | –
6 | NC(=O)CNC(c1ccccc1)c1ccc(Cl)cc1 (centres unmarked) [Compound 1, 2-[(4-chlorophenyl)phenyl]methylaminoacetamide] | – | 2400 mg/kg | 1000 mg/kg | 9 mice | Behavior: dose at which convulsions (CON) are observed (mice): 1000 mg/kg; Behavior: dose at which hypotonia (ATN) is observed (mice): 1000 mg/kg
7 | NC(=O)CNC(c1ccc(F)cc1)c1ccccc1F (centres unmarked) [Compound 11, 2-[(4-fluorophenyl)(2-fluorophenyl)]methylaminoacetamide] | 8 mice | 315 mg/kg | 100 mg/kg | – | Behavior: dose at which convulsions (CON) are observed (mice): 1000 mg/kg; Behavior: dose at which depression (DEP) is observed (mice): 1000 mg/kg
8 | Cc1ccccc1C(NCC(N)=O)c1ccccc1 (centres unmarked) [Compound 4, 2-[(2-methylphenyl)phenyl]methylaminoacetamide] | 5 mice | 780 mg/kg | 300 mg/kg | – | Behavior: dose at which hypotonia (ATN) is observed (mice): 300 mg/kg
9 | Cc1ccc(C)c(C(NCC(N)=O)c2ccccc2)c1 (centres unmarked) [Compound 9, 2-[(2,5-dimethylphenyl)phenyl]methylaminoacetamide] | 1 mice | – | – | – | –
10 | NC(=O)CNC(c1ccccc1)c1ccc(F)cc1 (centres unmarked) [Compound 12, 2-[(4-fluorophenyl)phenyl]methylaminoacetamide] | 9 mice | – | – | 10 mice | –
11 | NC(=O)CNC(c1ccccc1)c1ccc(C(F)(F)F)cc1 (centres unmarked) [Compound 7, 2-[(4-trifluoromethylphenyl)phenyl]methylaminoacetamide] | 4 mice | – | – | – | –
12 | NC(=O)CNC(c1ccc(F)cc1)c1ccc(F)cc1 [Compound 13, 2-[di(4-fluorophenyl)]methylaminoacetamide] | 5 mice | – | – | – | –
13 | CCCCCNCC(N)=O [2-pentylaminoacetamide, reference compound] | – | – | – | – | effect on 5HTP-induced head twitch (comparison compound) (5HTP-induced head twitch): potentiates 5HTP-induced head twitch
14 | Cc1ccc(C(NCC(N)=O)c2ccccc2)cc1C (centres unmarked) [Compound 6, 2-[(3,4-dimethylphenyl)phenyl]methylaminoacetamide] | 2 mice | 3500 mg/kg | 3000 mg/kg | – | Behavior: dose at which hypotonia (ATN) is observed (mice): 3000 mg/kg
15 | Cc1ccc(C(NCC(N)=O)c2ccccc2)cc1 (centres unmarked) [Compound 3, 2-[(4-methylphenyl)phenyl]methylaminoacetamide] | 1 mice | > 3000 mg/kg | 1000 mg/kg | – | Behavior: dose at which depression (DEP) is observed (mice): 3000 mg/kg
16 | NC(=O)CNC(c1ccc(Cl)cc1)c1ccc(Cl)cc1 [Compound 8, 2-[di(4-chlorophenyl)]methylaminoacetamide] | 1 mice | – | – | – | –
17 | NC(=O)CNC(c1ccccc1)c1ccccc1Cl (centres unmarked) [Compound 16, 2-[(2-chlorophenyl)phenyl]methylaminoacetamide] | – | – | – | 9 mice | –
18 | COc1ccc(C(NCC(N)=O)c2ccccc2)cc1 (centres unmarked) [Compound 2, 2-[(4-methoxyphenyl)phenyl]methylaminoacetamide] | – | – | – | 8 mice | –
